# Reference: patent US20050127321A1, “Compositions containing lactone compatibilizers” (priority 2003, published 2005)
# Tests used:
# [1] = Phase separation temperature of compatibilizer / Zerol 150 alkylbenzene oil / R134a mixtures (cloud point on cooling); assay type: physicochemical; settings: near 25.0 wt % Zerol 150 : 25.0 wt % compatibilizer : 50.0 wt % R134a, cooled in one degree intervals
# Protocol: The phase separation temperatures for lactone compatibilizers of the present invention when combined with Zerol® 150 alkylbenzene oil were determined. […] The glass tube was sealed at one end, and the other end was sealed to a Teflon® vacuum valve stopcock. This entire apparatus was tared, and was attached at valve E to a high vacuum line capable of achieving 10^−4 to 10^−5 torr (See FIG. 1). The pressure was measured by a mercury manometer, F. All five valves, A, B, C, D and E were attached to the manifold via greased ground-glass joints. Valve A joined the manifold to the source of refrigerant. Valve B joined a flask comprising fluorocarbon refrigerant, once loaded into the manifold. Valve C joined a 125.5 mL calibrated vessel to the manifold. And valve D joined a 5 mm OD in leg glass tube 150 mm in length containing oil and compatibilizer.
# The glass tube, refrigerant container, and calibrated volume were evacuated by opening valve B, C, D, and E, and keeping valve A closed. After vacuum was achieved, Valve D and E were closed. An atmosphere of refrigerant was introduced into the vacuum line by opening Valve A. After closing valve A, the refrigerant was condensed into the refrigerant container by cooling with a liquid nitrogen bath. Valve E was opened to remove any residual air. Valve E was closed, and the refrigerant container was allowed to warm until the desired pressure was reached as indicated on the mercury manometer whereupon Valve C was closed trapping a known amount of refrigerant in the calibrated volume. The excess refrigerant was condensed back into the refrigerant container by cooling with a liquid nitrogen bath, Valve B was closed, and Valve E was opened to remove all residual gases. The glass tube was cooled in a liquid nitrogen bath, and the refrigerant was transferred from the calibrated volume to the glass tube by closing Valve E, and opening Valves C and D. Valve D was then sealed after all the refrigerant had transferred into the glass tube. The glass tube apparatus was removed from the vacuum line, and the tube was allowed to warm while maintaining the tube behind appropriate protective shielding for safety purposes throughout the rest of the procedure owing to the positive pressure in the glass tube. After removal of grease from the ground glass joint, the previously tared glass tube apparatus was weighed to ensure the appropriate mass of refrigerant had been added to the tube. In a typical experiment, the composition in the tube was near 50.0 wt % R134a, 25.0 wt % Zerol® 150 and 25.0 wt % of compatibilizer.
# The phase separation temperature of the mixture was determined by manually shaking the contents of the glass tube while cooling the mixture by one degree Centigrade intervals until a cloudpoint/phase separation was visually observed. Results are shown in Table II in comparison with an amide compatibilizer, N-octyl-pyrrolidin-2-one.
# [2] = test system: New Zealand White rabbits; experiment: Acute skin irritation/corrosive potential, scored on the Draize scale; assay type: in vivo; settings: 0.5 mL undiluted, approximately 4 hours exposure, semi-occlusive, evaluated up to 72 hours
# Protocol: Compositions of the present invention were evaluated for acute skin irritation/corrosive potential in New Zealand White rabbits. An aliquot of 0.5 mL of undiluted compatibilizer was administered to a localized site on the backs of the animals. The test sites were covered with a semi-oclusive dressing to ensure contact between the skin and the test substance. The animals were exposed to the test substances for approximately 4 hours. The test sites were evaluated for erythrema, edema, and other evidence of dermal effects for up to 72 hours following the removal of the test substance. Observed dermal effects were scored according to the Draize scale. The reversibility of dermal effects was assessed for up to 14 days, as necessary.
# [3] = Kinematic viscosity of lactone compatibilizers; assay type: physicochemical; settings: at 40° C.
Molecule,Phase Separation Temperature [1],further results
CCCCCC1CCCC(=O)O1 (stereo not drawn) [delta-decalactone],−10 deg C,–
"CCCCCCCC=C1CC(C)OC1=O (stereo not drawn) [(E,Z)-3-octylidene-5-methyl-dihydro-furan-2-one]",−8 deg C,–
CCC[C@@H]1C[C@H](C)OC1=O [cis-(3-propyl-5-methyl)-dihydro-furan-2-one],14 deg C,–
CCCCCCCC1CCOC1=O (stereo not drawn) [3-heptyldihydro-furan-2-one],0 deg C,–
CCCCCC[C@]1(C)CCC(=O)O1 (stereo in doubt) [5-methyl-5-hexyl-dihydro-furan-2-one],−2 deg C,–
"CC(CC=C1C[C@@H](C)OC1=O)CC(C)(C)C (stereo partly drawn) [(E,Z)-3-(3,5,5-trimethylhexylidene)-5-methyl-dihydrofuran-2-one]",3 deg C,–
"CCCC=C1CC(C)OC1=O (stereo not drawn) [(E,Z)-3-butylidene-5-methyl-dihydro-furan-2-one]",9 deg C,–
CC1CCC(=O)N1C1CCCCC1 (stereo not drawn) [5-methyl-n-cyclohexyl pyrrolidin-2-one],–,Classification [2]: Corrosive; Observations (dermal effects) [2]: Necrosis
5-methyl-n-octyl-pyrrolidin-2-one,–,Classification [2]: Corrosive; Observations (dermal effects) [2]: Necrosis
"CCCCCCCCC=C1CC(C)OC1=O (stereo not drawn) [(E,Z)-3-nonylidene-5-methyl-dihydro-furan-2-one]",4 deg C,–
"(E,Z)-3-decylidene-5-methyl-dihydro-furan-2-one",13 deg C,–
CCCCCCC1CCOC1=O (stereo not drawn) [3-hexyldihydro-furan-2-one],5 deg C,–
"CCCCCC=C1CC(C)OC1=O (stereo not drawn) [(E,Z)-3-Hexylidene-5-methyl-dihydro-furan-2-one]",−7 deg C,–
"CCCCCCCCN1CCCC1=O [N-octylpyrrolidin-2-one, reference compound]",−4 deg C,Classification [2]: Severe irritant
"CC1C/C(=C/C2CCCCC2)C(=O)O1 (stereo not drawn) [(E,Z)-3-cyclohexylmethylidene-5-methyl-dihydrofuran-2-one]",−2 deg C,–
"CCC1CCC(=O)O1 (stereo not drawn) [gamma-caprolactone, reference compound]",Immiscible with Zerol ®150,–
"CCC=C1CC(C)OC1=O (stereo not drawn) [(E,Z)-3-propylidene-5-methyl-dihydro-furan-2-one]",12 deg C,–
"CC(CC[C@@H]1C[C@H](C)OC1=O)CC(C)(C)C (relative stereo) [cis-3-(3,5,5-trimethylhexyl)-5-methyl-dihydro-furan-2-one]",2 deg C,–
CCCCCCCCC1CCC(=O)O1 (stereo not drawn) [gamma-dodecalactone],−6 deg C,–

Molecule,Phase Separation Temperature [1],further results
CCCCC[C@@H]1C[C@H](C)OC1=O [cis-(3-pentyl-5-methyl)-dihydro-furan-2-one],−1 deg C,–
O=C1OC[C@H]2CCCC[C@@H]12 (stereo in doubt) [Hexahydro-isobenzofuran-1-one],4 deg C,–
CCCCC1CCC(=O)O1 (stereo not drawn) [gamma-octalactone],10 deg C,–
"CC=C1CC(C)OC1=O (stereo not drawn) [(E,Z)-3-ethylidene-5-methyl-dihydro-furan-2-one]",24 deg C,–
CCCCCC[C@@H]1C[C@H](C)OC1=O (relative stereo) [cis-3-hexyl-5-methyl-dihydro-furan-2-one],−9 deg C,kinematic viscosity [3]: 4.5 centistokes
CCCCCCC1CCCC(=O)O1 (stereo not drawn) [delta-undecalactone],−12 deg C,–
CC[C@@H]1C[C@H](C)OC1=O (relative stereo) [cis-3-ethyl-5-methyl-dihydro-furan-2-one],>25 deg C,–
CCCCCCCC1CCCC(=O)O1 (stereo not drawn) [delta-dodecalactone],−13 deg C,–
"CCCCOC(=O)c1ccccc1C(=O)OCCCC [dibutyl phthalate, reference compound]",18 deg C,–
CCCCCC1CCC(=O)O1 (stereo not drawn) [gamma-nonalactone],−2 deg C,–
CCCCCCC1CC(C)OC1=O (stereo not drawn) [3-hexyl-5-methyl-gammabutyrolactone],–,Classification [2]: Not a skin irritant; Observations (dermal effects) [2]: No irritation
"CCCCCCCCC(=O)N(C)C [N,N-Dimethylnonanamide]",–,Classification [2]: Severe irritant
"CCCCC=C1CC(C)OC1=O (stereo not drawn) [(E,Z)-3-pentylidene-5-methyl-dihydro-furan-2-one]",0 deg C,–
CCCC[C@@H]1C[C@H](C)OC1=O [cis-(3-butyl-5-methyl)-dihydro-furan-2-one],10 deg C,–
"CCCCCCC=C1CC(C)OC1=O (stereo not drawn) [(E,Z)-3-Heptylidene-5-methyl-dihydro-furan-2-one]",−6 deg C,–
CCCCCCC[C@@H]1C[C@H](C)OC1=O (relative stereo) [cis-3-heptyl-5-methyl-dihydro-furan-2-one],phase gelled and/or precipitated at −11 deg C,–
CCCCCCCC[C@]1(C)CCC(=O)O1 (stereo in doubt) [5-methyl-5-octyl-dihydro-furan-2-one],−4 deg C,–
CCCCCCC1CCC(=O)O1 (stereo not drawn) [gamma-decalactone],−3 deg C,–
